Values quoted from earlier work, collected in patent US6040300A, “Method of preventing colon cancer with vitamin D3 analogues” (Arch Development Corporation, priority 1995, dated 2000).
Entries after “also recorded” stand apart in the source; their conditions may differ.

Experiments:
HL-60 cells = details: cited from earlier work
c-myc mRNA = details: HL-60 cells; cited from earlier work

Which induction of differentiation (HL-60 cells) does the source give for `C=C1/C(=C\C=C2/CCC[C@]3(C)C([C@H](C)CC#CC(O)(C(F)(F)F)C(F)(F)F)=CC[C@@H]23)C[C@@H](O)C[C@@H]1O` [RO24-5531, 26,26,26,27,27,27-hexafluoro-1α,25-dihydroxy-16-ene-23-yne-cholecalciferol] here?
Its induction of differentiation is “induction of differentiation”.

What about the inhibition of proliferation (HL-60 cells) of the same compound?
The inhibition of proliferation was “inhibit proliferation of HL-60 cells; also recorded: inhibition of proliferation”.

And the “c-myc mRNA expression” value (c-myc mRNA)?
Its value is “decrease c-myc mRNA expression in HL-60 cells”.
